System: Endogenous Huntingtin Protein
Experiment: Endogenous Huntingtin Protein Assay (Meso Scale Discovery ELISA-based electrochemiluminescence)
Assay type: cell-based
Conditions: MSD plates coated with MW1 (expanded polyglutamine) or MAB2166 capture antibody; lysates
Description: Compounds of Formula (I) were tested using the Meso Scale Discovery (MSD) Assay provided in International Application No. PCT/US2016/066042, filed on Dec. 11, 2016 and claiming priority to United States Provisional Application U.S. 62/265,652 filed on Dec. 10, 2015, the entire contents of which are incorporated herein by reference.
The Endogenous Huntingtin Protein assay used in Example 1 was developed using the ELISA-based MSD electrochemiluminescence assay platform.
Endogenous Huntingtin Protein Assay
Meso Scale Discovery (MSD) 96-well or 384-well plates were coated overnight at 4° C. with MW1 (expanded polyglutamine) or MAB2166 monoclonal antibody (for capture) at a concentration of 1 μg/mL in PBS (30 μL per well). Plates were then washed three times with 300 μL wash buffer (0.05% Tween-20 in PBS) and blocked (100 μL blocking buffer; 5% BSA in PBS) for 4-5 hours at room temperature with rotational shaking and then washed three times with wash buffer.
Samples (25 μL) were transferred to the antibody-coated MSD plate and incubated overnight at 4° C. After removal of the lysates, the plate was washed three times with wash buffer, and 25 μL of #5656S (Cell signaling; rabbit monoclonal) secondary antibody (diluted to 0.25 μg/mL in 0.05% Tween-20 in blocking buffer) was added to each well and incubated with shaking for 1 Hour at room temperature. Following incubation with the secondary antibody, the wells were rinsed with wash buffer after which 25 μL of goat anti-rabbit SULFO TAG secondary detection antibody (required aspect of the MSD system) (diluted to 0.25 μg/mL in 0.05% Tween-20 in blocking buffer) was added to each well and incubated with shaking for 1 hour at room temperature. After rinsing three times with wash buffer, 150 μL of read buffer T with surfactant (MSD) were added to each empty well, and the plate was imaged on a SI 6000 imager (MSD) according to manufacturers' instructions provided for 96- or 384-well plates.

Structure (SMILES) | IC50 [nM]
CC1(C)CC(n2nnc3cc(-c4ccc(-c5ccc(O)nn5)cc4O)nnc32)CC(C)(C)N1 [Cpd 79, 6-{3-hydroxy-4-[3-(2,2,6,6-tetramethylpiperidin-4-yl)-3H-[1,2,3]triazolo[4,5-c]pyridazin-6-yl]phenyl}pyridazin-3-ol] | 500 to 1000
Cc1cn(-c2ccc(-c3cc4nnn(C5CC(C)(C)NC(C)(C)C5)c4nn3)c(O)c2)cn1 [Cpd 144, 5-(4-methyl-1H-imidazol-1-yl)-2-[3-(2,2,6,6-tetramethylpiperidin-4-yl)-3H-[1,2,3]triazolo[4,5-c]pyridazin-6-yl]phenol] | ≤ 100
Cc1n[nH]cc1-c1ccc(-c2cc3nnn(C4CC(C)(C)NC(C)(C)C4)c3nn2)c(O)c1 [Cpd 108, 5-(3-methyl-1H-pyrazol-4-yl)-2-[3-(2,2,6,6-tetramethylpiperidin-4-yl)-3H-[1,2,3]triazolo[4,5-c]pyridazin-6-yl]phenol] | ≤ 100
COc1nc2cc(-c3ccc(-c4cn[nH]c4)cc3O)nnc2n1C1CC(C)(C)NC(C)(C)C1 [Cpd 40, 2-[6-methoxy-7-(2,2,6,6-tetramethylpiperidin-4-yl)-7H-imidazo[4,5-c]pyridazin-3-yl]-5-(1H-pyrazol-4-yl)phenol] | 3000 to 9000
C[C@]12CC[C@](C)(CC(n3nnc4cc(-c5ccc(-c6cn[nH]c6)cc5O)nnc43)C1)N2 (stereo partly drawn) [Cpd 57, 2-{3-[(1R,5S)-1,5-dimethyl-8-azabicyclo[3.2.1]octan-3-yl]-3H-[1,2,3]triazolo[4,5-c]pyridazin-6-yl}-5-(1H-pyrazol-4-yl)phenol] | ≤ 100
CC1(C)CC(n2cnc3nc(-c4cc(F)c(-c5cn[nH]c5)cc4F)cnc32)CC(C)(C)N1 [Cpd 2, 5-[2,5-difluoro-4-(1H-pyrazol-4-yl)phenyl]-1-(2,2,6,6-tetramethylpiperidin-4-yl)-1H-imidazo[4,5-b]pyrazine] | 100 to 500
CC1(C)CC(n2nnc3cc(-c4ccc(-c5ccsc5)cc4O)nnc32)CC(C)(C)N1 [Cpd 89, 2-[3-(2,2,6,6-tetramethylpiperidin-4-yl)-3H-[1,2,3]triazolo[4,5-c]pyridazin-6-yl]-5-(thiophen-3-yl)phenol] | 100 to 500
CC1(C)CC(n2ccc3cc(-c4ccc(-n5nccn5)cc4O)nnc32)CC(C)(C)N1 [Cpd 176, 2-[7-(2,2,6,6-tetramethylpiperidin-4-yl)-7H-pyrrolo[2,3-c]pyridazin-3-yl]-5-(2H-1,2,3-triazol-2-yl)phenol] | ≤ 100
CC1(C)CC(n2ccc3nc(-c4ccc(-c5cn[nH]c5)cc4O)cnc32)CC(C)(C)N1 [Cpd 10, 5-(1H-pyrazol-4-yl)-2-[5-(2,2,6,6-tetramethylpiperidin-4-yl)-5H-pyrrolo[2,3-b]pyrazin-2-yl]phenol] | ≤ 100
CC1(C)CC(n2nnc3cc(-c4ccc(-c5ccc(O)cc5)cc4O)nnc32)CC(C)(C)N1 [Cpd 38, 4-[3-(2,2,6,6-tetramethylpiperidin-4-yl)-3H-[1,2,3]triazolo[4,5-c]pyridazin-6-yl]biphenyl-3,4′-diol] | ≤ 100
CC1(C)C=C(c2csc3cc(-c4ccc(-c5cn[nH]c5)cc4O)nnc23)CC(C)(C)N1 [Cpd 17, 5-(1H-pyrazol-4-yl)-2-[7-(2,2,6,6-tetramethyl-1,2,3,6-tetrahydropyridin-4-yl)thieno[3,2-c]pyridazin-3-yl]phenol] | ≤ 100
Cc1cc(-c2ccc(-c3cc4nnn(C5CC(C)(C)NC(C)(C)C5)c4nn3)c(O)c2)ccn1 [Cpd 73, 5-(2-methylpyridin-4-yl)-2-[3-(2,2,6,6-tetramethylpiperidin-4-yl)-3H-[1,2,3]triazolo[4,5-c]pyridazin-6-yl]phenol] | ≤ 100
CC1(C)CC(n2ccc3cc(-c4ncc(-c5cn[nH]c5)cc4O)nnc32)CC(C)(C)N1 [Cpd 136, 5-(1H-pyrazol-4-yl)-2-[7-(2,2,6,6-tetramethylpiperidin-4-yl)-7H-pyrrolo[2,3-c]pyridazin-3-yl]pyridin-3-ol] | ≤ 100
CC1(C)CC(n2nnc3cc(-c4ccc(-c5nccs5)cc4O)nnc32)CC(C)(C)N1 [Cpd 96, 2-[3-(2,2,6,6-tetramethylpiperidin-4-yl)-3H-[1,2,3]triazolo[4,5-c]pyridazin-6-yl]-5-(1,3-thiazol-2-yl)phenol] | ≤ 100
CC1(C)CC(n2nnc3cc(-c4cc5cn[nH]c5cc4O)nnc32)CC(C)(C)N1 [Cpd 94, 5-[3-(2,2,6,6-tetramethylpiperidin-4-yl)-3H-[1,2,3]triazolo[4,5-c]pyridazin-6-yl]-1H-indazol-6-ol] | 500 to 1000
CC1(C)CC(n2nnc3cc(-c4ccc(-c5cnc6cnccn56)cc4O)nnc32)CC(C)(C)N1 [Cpd 85, 5-(imidazo[1,2-a]pyrazin-3-yl)-2-[3-(2,2,6,6-tetramethylpiperidin-4-yl)-3H-[1,2,3]triazolo[4,5-c]pyridazin-6-yl]phenol] | 1000 to 3000
Cc1cnn(-c2ccc(-c3cc4nnn(C5CC(C)(C)NC(C)(C)C5)c4nn3)c(O)c2)c1 [Cpd 156, 5-(4-methyl-1H-pyrazol-1-yl)-2-(3-(2,2,6,6-tetramethylpiperidin-4-yl)-3H-[1,2,3]triazolo[4,5-c]pyridazin-6-yl)phenol] | 100 to 500
CC1(C)CC(n2ncc3cc(-c4ccc(-n5nccn5)cc4O)nnc32)CC(C)(C)N1 [Cpd 174, 2-[1-(2,2,6,6-tetramethylpiperidin-4-yl)-1H-pyrazolo[3,4-c]pyridazin-5-yl]-5-(2H-1,2,3-triazol-2-yl)phenol] | ≤ 100
CC1(C)CC(n2nnc3cc(-c4ccc(-c5c[nH]nc5C#N)cc4O)nnc32)CC(C)(C)N1 [Cpd 109, 4-{3-hydroxy-4-[3-(2,2,6,6-tetramethylpiperidin-4-yl)-3H-[1,2,3]triazolo[4,5-c]pyridazin-6-yl]phenyl}-1H-pyrazole-3-carbonitrile] | ≤ 100
Oc1cc(-c2cn[nH]c2)ccc1-c1cc2scc(C3=CC4CCC(C3)N4)c2nn1 (stereo not drawn) [Cpd 18, 2-[7-(8-azabicyclo[3.2.1]oct-2-en-3-yl)thieno[3,2-c]pyridazin-3-yl]-5-(1H-pyrazol-4-yl)phenol] | ≤ 100
CC1(C)CC(n2nnc3cc(-c4ccc(-c5c[nH]nc5Br)cc4O)nnc32)CC(C)(C)N1 [Cpd 137, 5-(3-bromo-1H-pyrazol-4-yl)-2-[3-(2,2,6,6-tetramethylpiperidin-4-yl)-3H-[1,2,3]triazolo[4,5-c]pyridazin-6-yl]phenol] | ≤ 100
CC1(C)CC(n2nnc3cc(-c4ccc(-c5ccnc(N)c5)cc4O)nnc32)CC(C)(C)N1 [Cpd 99, 5-(2-aminopyridin-4-yl)-2-[3-(2,2,6,6-tetramethylpiperidin-4-yl)-3H-[1,2,3]triazolo[4,5-c]pyridazin-6-yl]phenol] | ≤ 100
CC1(C)CC(n2nnc3cc(-c4ccc(-c5ccncc5F)cc4O)nnc32)CC(C)(C)N1 [Cpd 101, 5-(3-fluoropyridin-4-yl)-2-[3-(2,2,6,6-tetramethylpiperidin-4-yl)-3H-[1,2,3]triazolo[4,5-c]pyridazin-6-yl]phenol] | 500 to 1000
Cn1ccc(-c2ccc(-c3cc4nnn([C@H]5CC(C)(C)NC(C)(C)[C@H]5F)c4nn3)c(O)c2)cc1=O [Cpd 171, 4-(4-{3-[(3S,4S)-3-fluoro-2,2,6,6-tetramethylpiperidin-4-yl]-3H-[1,2,3]triazolo[4,5-c]pyridazin-6-yl}-3-hydroxyphenyl)-1-methylpyridin-2(1H)-one] | 100 to 500
CC1(C)CC(n2nnc3cc(-c4ncc(-c5cn[nH]c5)cc4O)nnc32)CC(C)(C)N1 [Cpd 140, 5-(1H-pyrazol-4-yl)-2-[3-(2,2,6,6-tetramethylpiperidin-4-yl)-3H-[1,2,3]triazolo[4,5-c]pyridazin-6-yl]pyridin-3-ol] | ≤ 100
CC1(C)CC(n2ncc3cc(-c4ccc(-c5cn[nH]c5)cc4O)nnc32)CC(C)(C)N1 [Cpd 22, 5-(1H-pyrazol-4-yl)-2-[1-(2,2,6,6-tetramethylpiperidin-4-yl)-1H-pyrazolo[3,4-c]pyridazin-5-yl]phenol] | ≤ 100
CC1(C)CC(n2nnc3cc(-c4ccc(-n5cncn5)cc4O)nnc32)CC(C)(C)N1 [Cpd 63, 2-[3-(2,2,6,6-tetramethylpiperidin-4-yl)-3H-[1,2,3]triazolo[4,5-c]pyridazin-6-yl]-5-(1H-1,2,4-triazol-1-yl)phenol] | ≤ 100
CC1(C)CC(N2CCc3cc(-c4ccc(-c5cn[nH]c5)cc4O)nnc32)CC(C)(C)N1 [Cpd 23, 5-(1H-pyrazol-4-yl)-2-[7-(2,2,6,6-tetramethylpiperidin-4-yl)-6,7-dihydro-5H-pyrrolo[2,3-c]pyridazin-3-yl]phenol] | ≤ 100
CC1(C)CC(n2ncc3cc(-c4ccc(-c5ccncc5)cc4O)nnc32)CC(C)(C)N1 [Cpd 165, 5-(pyridin-4-yl)-2-[1-(2,2,6,6-tetramethylpiperidin-4-yl)-1H-pyrazolo[3,4-c]pyridazin-5-yl]phenol] | ≤ 100
COc1cc(-c2ccc(-c3cc4nnn(C5CC(C)(C)NC(C)(C)C5)c4nn3)c(O)c2)ncn1 [Cpd 113, 5-(6-methoxypyrimidin-4-yl)-2-[3-(2,2,6,6-tetramethylpiperidin-4-yl)-3H-[1,2,3]triazolo[4,5-c]pyridazin-6-yl]phenol] | ≤ 100

From patent US11858941B2, “Heterocyclic and heteroaryl compounds for treating Huntington's disease” (PTC THERAPEUTICS, INC., priority 2018, dated 2024)
